Test results as given in the NIST ThermoML archive (doi:10.1016/j.jct.2008.04.013).
Several values for one entry are separate records, joined by “and”; a condition that tells them apart may be missing. Equal entries are not always repeated. ± gives the expanded uncertainty stated by the source.

Settings: Liquid, Calculated from knudsen effusion weight loss

Cc1ccc(C(=O)O)s1 [5-methyl-2-thiophenecarboxylic acid]
Settings	vapor or sublimation pressure
316.29 K	9e-05 ± 5e-06 kPa and 8.8e-05 ± 4e-06 kPa and 8.9e-05 ± 5e-06 kPa
318.25 K	0.000113 ± 6e-06 kPa and 0.000112 ± 6e-06 kPa and 0.00011 ± 6e-06 kPa
320.12 K	0.000139 ± 7e-06 kPa
322.28 K	0.00018 ± 9e-06 kPa and 0.000183 ± 9e-06 kPa
324.24 K	0.000229 ± 1.1e-05 kPa and 0.000226 ± 1.1e-05 kPa and 0.000222 ± 1.1e-05 kPa
326.12 K	0.000273 ± 1.4e-05 kPa and 0.000278 ± 1.4e-05 kPa and 0.000276 ± 1.4e-05 kPa
328.28 K	0.000341 ± 1.7e-05 kPa and 0.000356 ± 1.8e-05 kPa and 0.000355 ± 1.8e-05 kPa
330.22 K	0.000441 ± 2.2e-05 kPa and 0.000439 ± 2.2e-05 kPa and 0.000427 ± 2.1e-05 kPa
332.11 K	0.00054 ± 2.7e-05 kPa and 0.000539 ± 2.7e-05 kPa
334.28 K	0.0007 ± 3.5e-05 kPa and 0.000697 ± 3.5e-05 kPa and 0.00069 ± 3.5e-05 kPa
336.22 K	0.000859 ± 4.3e-05 kPa and 0.000855 ± 4.3e-05 kPa and 0.000843 ± 4.2e-05 kPa
338.11 K	0.001049 ± 0.00011 kPa and 0.001053 ± 0.00011 kPa and 0.001028 ± 0.0001 kPa

CC(=O)c1ccc(C(=O)O)s1 [5-acetyl-2-thiophenecarboxylic acid]
Settings	vapor or sublimation pressure
364.15 K	0.00011 ± 6e-06 kPa and 0.000108 ± 5e-06 kPa and 0.000105 ± 5e-06 kPa
366.18 K	0.000133 ± 7e-06 kPa and 0.000135 ± 7e-06 kPa and 0.000129 ± 6e-06 kPa
368.18 K	0.000163 ± 8e-06 kPa and 0.00016 ± 8e-06 kPa
370.15 K	0.000205 ± 1e-05 kPa and 0.0002 ± 1e-05 kPa and 0.000208 ± 1e-05 kPa
372.17 K	0.000252 ± 1.3e-05 kPa and 0.00025 ± 1.3e-05 kPa and 0.000244 ± 1.2e-05 kPa
374.17 K	0.000303 ± 1.5e-05 kPa and 0.000307 ± 1.5e-05 kPa and 0.000298 ± 1.5e-05 kPa
376.15 K	0.000392 ± 2e-05 kPa and 0.000387 ± 1.9e-05 kPa and 0.000376 ± 1.9e-05 kPa
378.17 K	0.000471 ± 2.4e-05 kPa and 0.000472 ± 2.4e-05 kPa and 0.000451 ± 2.3e-05 kPa
380.18 K	0.000578 ± 2.9e-05 kPa and 0.000568 ± 2.8e-05 kPa and 0.000548 ± 2.7e-05 kPa
382.18 K	0.000707 ± 3.5e-05 kPa and 0.000698 ± 3.5e-05 kPa and 0.000683 ± 3.4e-05 kPa
384.18 K	0.000819 ± 4.1e-05 kPa and 0.000846 ± 4.2e-05 kPa and 0.000816 ± 4.1e-05 kPa
386.17 K	0.001019 ± 0.0001 kPa and 0.001018 ± 0.0001 kPa and 0.000988 ± 4.9e-05 kPa

Cc1ccsc1C(=O)O [3-methyl-2-thiophenecarboxylic acid]
Settings	vapor or sublimation pressure
312.13 K	0.000104 ± 5e-06 kPa and 0.000102 ± 5e-06 kPa
314.2 K	0.000129 ± 6e-06 kPa and 0.00013 ± 7e-06 kPa and 0.000126 ± 6e-06 kPa
316.22 K	0.000164 ± 8e-06 kPa and 0.000162 ± 8e-06 kPa and 0.000159 ± 8e-06 kPa
318.13 K	0.000205 ± 1e-05 kPa and 0.000204 ± 1e-05 kPa and 0.000209 ± 1e-05 kPa
320.19 K	0.000264 ± 1.3e-05 kPa and 0.000261 ± 1.3e-05 kPa and 0.000254 ± 1.3e-05 kPa
322.21 K	0.000323 ± 1.6e-05 kPa and 0.00032 ± 1.6e-05 kPa and 0.000314 ± 1.6e-05 kPa
324.14 K	0.000412 ± 2.1e-05 kPa and 0.000407 ± 2e-05 kPa and 0.000418 ± 2.1e-05 kPa
326.18 K	0.000507 ± 2.5e-05 kPa and 0.000503 ± 2.5e-05 kPa
328.21 K	0.000636 ± 3.2e-05 kPa and 0.00063 ± 3.2e-05 kPa
330.15 K	0.000798 ± 4e-05 kPa and 0.000786 ± 3.9e-05 kPa and 0.000769 ± 3.9e-05 kPa
332.23 K	0.000984 ± 4.9e-05 kPa and 0.000972 ± 4.9e-05 kPa and 0.00094 ± 4.7e-05 kPa
334.2 K	0.001191 ± 0.00012 kPa and 0.001174 ± 0.00012 kPa and 0.001146 ± 0.00012 kPa
